Here are results for 13 molecules from patent US8426429B2, “2-amino-quinazoline derivatives useful as inhibitors of β-secretase (BACE)” (Jansssen Pharmaceutica N.V., priority 2004, dated 2013).

Read-outs that look alike come from different tables or passages of the source. Where only a bound is given, the exact number is not on record here.

Common to all, as to format: biochemical
Test [1] deals with T1, β-secretase (BACE) (Homo sapiens, UniProt P56817).
T1 construct: purchased Panvera
As to the kind of experiment: BACE FS1 % Inhibition Assay. The conditions noted are these: for inhibition at 0.3 µM / inhibition at 1 µM / inhibition at 3 µM: read-out: % Inhibition (FS). The procedure, abridged: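 Percent inhibition per compound concentration was referenced to vehicle-treated enzyme and no-enzyme wells. Enzyme at a 4 μg/mL working stock plus compound was mixed for 20 min at room temperature before the FS1 substrate (300 μg/mL working stock) was added for a 1 h room-temperature reaction.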

Test [2] has as its target T1, β-secretase (BACE). The experiment in a line: BACE Assay-2 (FS1 substrate, IC50 and Ki). The conditions noted are these: procedure of Example 159, FS1 substrate. As for the experimental part:
The FS1-substrate stock solution was prepared in DMSO as a 10 mg/mL solution. The FS1-substrate working solution was prepared by diluting the 10 mg/mL stock solution with substrate assay buffer to a final concentration of […]. The β-secretase (BACE) working solution was prepared by diluting a 0.83 mg/mL BACE stock solution with enzyme assay buffer to a final concentration of 4 μg/mL.
Test compounds were dissolved in DMSO at 10 mM.
The procedure for this assay was as follows: 15 μL of BACE working solution was pipetted into each well of a 96-well plate. To each well was then pipetted 2 μL of test compound at the selected concentration. Test compound and BACE were then mixed with a pipettor and incubated for 20 min at room temperature. To each well was then added 10 μL of the FS1 substrate working solution.
The procedure for the positive control was as follows:15 μL of BACE working solution was pipetted into each well to be used as a positive control. To each well was then pipetted 2 μL of vehicle. Vehicle and BACE were then mixed with a pipettor and incubated for 20 min at room temperature. To each well was then added 10 μL of the FS1 substrate working solution.
For test compounds, measured at multiple concentrations, the measured T0 and T60 values were used to calculate an IC50 value using Graphpad Software (or PIR). For test compounds, Ki inhibition was determined as follows: For each compound concentration and positive control, rate of cleavage of substrate (Vi, where i=compound concentration in μM) was determined as Δ Fluorescence/Δ time (min). Cleavage rates (Vi) were plotted as a function of inhibitor concentration in μM [I]. The Ki was then determined by fitting the following equation to the graph of [I] vs Vi Y=aVmax/(50+24*(1+X/Ki)),

The target in test [3] is T1, β-secretase (BACE). As to the kind of experiment: BACE Assay-1 (MCA-substrate, IC50). The conditions noted are these: procedure of Example 158. As for the experimental part: The following standards are reagents were used in this assay: Sodium Citrate trisodium salt dihydrate (Sigma), Citric Acid monohydrate (Merck), PEG8000 (Sigma), MCA-substrate (Bachem), β-secretase (BACE) (Panvera), 96-well plate zwart (Costar (Elscolab)), StatVal (Bachem).
The following standard assay buffer solution was prepared and used in this assay: 0.05 M, pH 5.0 mixture of sodium citrate trisodium salt dihydrate (9.56 g), citric acid monohydrate (3.68 g) and PEG8000 (0.50 g).
The MCA-substrate stock solution was prepared by mixing 10 mg MCA-substrate with 5 mL DMSO for a final solution concentration of 2.0 mg/mL. The substrate work solution was prepared by mixing 0.1 mL substrate in 1.90 mL assay buffer for a final concentration of 0.05 mM. The β-secretase (BACE) work solution was prepared by mixing 8 μL BACE in 2 mL assay buffer for a final concentration of 10 µg/mL.
The screen procedure for this assay was as follows. 60 μL of assay buffer was pippeted into each well of a 96-well plate. To each well was then pipetted 1 μL of test compound at the selected concentration. To each well was then added 20 μL of the β-secretase work solution and […] of the MCA-substrate stock solution.
The procedure for the blank was as follows. 80 μL of assay buffer was pipetted into each well to be used as a blank control. To each well was then added 1 μL of DMSO and 20 μL of MCA-substrate solution in each well.
The procedure for the positive control was as follows. 60 μL of assay buffer was pipetted into each well to be used as a positive control. To each well was then added 1 μL of DMSO, 20 μL of BACE work solution and 20 μL of MCA-substrate stock solution.
For test compounds, measured at multiple concentrations, the measured T0 and T60 values were used to calculate an IC50 value using Graphpad Software (or PIR).

For test [4], the target named is T1, β-secretase (BACE). As to the kind of experiment: BACE % Inhibition Assay ((Aedens)-[…]-(Dabcyl K-amide) substrate). The conditions noted are these: % error ±10%. On the procedure: The substrate stock solution was prepared in DMSO as a 10 mg/mL solution. The substrate working solution was prepared by diluting the 10 mg/mL stock solution with substrate assay buffer to a final concentration of […]. The β-secretase (BACE) working solution was prepared by diluting a 0.83 mg/mL BACE stock solution with enzyme assay buffer to a final concentration of 4 μg/mL.
Test compounds were dissolved in DMSO to 10 mM.
The screening procedure for this assay was as follows: 15 μL of BACE working solution was pipetted into each well of a 96-well plate. To each well was then pipetted 2 μL of test compound at the selected concentration. Test compound and BACE were then mixed with a pipettor and incubated for 20 min at room temperature. To each well was then added 10 μL of the substrate working solution. The plates were then incubated for 1 hour at room temperature.
The procedure for the blank was as follows. 15 μL of assay buffer was pipetted into each well to be used as a blank control. To each well was then added 2 μL of vehicle and 10 μL of substrate working solution. The plates were then incubated for 1 hour at room temperature.
The procedure for the positive control was as follows: 15 μl of BACE working solution was pipetted into each well to be used as a positive control. To each well was then pipetted 2 μL of vehicle. Vehicle and BACE were then mixed with a pipettor and incubated for 20 min at room temperature. To each well was then added 10 μL of the substrate working solution. The plates were the incubated for 1 hour at room temperature.
For test compounds, % inhibition was determined at each concentration as follows: […]

T1 sequence (P56817 46-501): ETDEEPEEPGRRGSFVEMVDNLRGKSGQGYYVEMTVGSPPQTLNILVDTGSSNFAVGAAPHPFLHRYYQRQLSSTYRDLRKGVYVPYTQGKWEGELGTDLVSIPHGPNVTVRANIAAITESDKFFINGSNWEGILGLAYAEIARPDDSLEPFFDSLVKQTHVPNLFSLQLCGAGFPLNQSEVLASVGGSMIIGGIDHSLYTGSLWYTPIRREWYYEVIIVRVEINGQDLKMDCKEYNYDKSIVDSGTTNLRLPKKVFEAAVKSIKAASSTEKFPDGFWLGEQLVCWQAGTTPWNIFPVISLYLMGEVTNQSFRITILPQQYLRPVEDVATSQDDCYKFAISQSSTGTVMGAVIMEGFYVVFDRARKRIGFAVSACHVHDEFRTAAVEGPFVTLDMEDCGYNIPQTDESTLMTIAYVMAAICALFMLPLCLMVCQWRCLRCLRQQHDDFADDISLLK

In general, inhibition refers to the relative decrease from the control value, in per cent. Broadly, the Ki is the equilibrium dissociation constant of an inhibitor or competing ligand from its target. A high value points to weaker binding. With `CN(CCCCC(=O)O)C(=O)CC[C@@H](C1CCCCC1)N1Cc2cc(Oc3ccccc3)ccc2N=C1N` [Compound 752], the inhibition at 0.3 µM on β-secretase (BACE) [1] (0.3 μM compound, FS1 substrate) was 45%. In addition, the inhibition at 1 µM at β-secretase (BACE) [1] (1 μM compound, FS1 substrate) stood at 81%. Also, the inhibition at 3 µM at β-secretase (BACE) [1] (3 μM compound, FS1 substrate) came to 109%. The molecule further yielded a Ki at β-secretase (BACE) [2] of 0.221 µM.
A word on the IC50: it is the concentration that inhibits the measured activity by half. On β-secretase (BACE) [3], `CCCN1Cc2cc(Oc3cccc(CN(C)Cc4c(C)cc(C)cc4C)c3)ccc2N=C1N` [Compound 464] showed an IC50 of 1.3 µM.
As to `COC(=O)[C@H]1CC[C@H](NC(=O)CC[C@@H](C2CCOCC2)N2Cc3cc(Oc4ccccc4)ccc3N=C2N)CC1` [Compound 747], at β-secretase (BACE) [1] (0.3 μM compound, FS1 substrate), the inhibition at 0.3 µM was determined as 41%. Further, on β-secretase (BACE) [1] (1 μM compound, FS1 substrate), the inhibition at 1 µM came out at 74%. Also, at β-secretase (BACE) [1] (3 μM compound, FS1 substrate), the inhibition at 3 µM was found to be 104%. Besides, on β-secretase (BACE) [2], affinity was put at a Ki of 0.088 µM.
For the molecule `NC1=Nc2ccc(-c3ccccc3)cc2CN1CCNC(=O)Cc1ccccc1` [Compound 595], the inhibition at 0.3 µM on β-secretase (BACE) [1] (0.3 μM test compound) worked out at 32%. In addition, the inhibition at 1 µM at β-secretase (BACE) [1] (1 μM test compound) is 70%. Moreover, the inhibition at 3 µM at β-secretase (BACE) [1] (3 μM test compound) turned out to be 104%. The molecule further gave a Ki at β-secretase (BACE) [2] of 0.33 µM.
One may read the % Inhibition as how much of the control response was suppressed. `CCCC(CCCC(=O)N(CC)C1CCCCC1)N1Cc2cc(Oc3ccccc3)ccc2N=C1N` (centres unmarked) [Compound 105]: the “% Inhibition” value at β-secretase (BACE) [4] (3 μM compound) and on β-secretase (BACE) [4] (10 μM compound) was <30% in each case. The “% Inhibition (FS)” value on β-secretase (BACE) [1] (0.3 μM test compound), at β-secretase (BACE) [1] (1 μM test compound) and at β-secretase (BACE) [1] (3 μM test compound) was <30% in each case.
For the molecule `CC(C)C(CNC(=O)C12CC3CC(CC(C3)C1)C2)N1Cc2cc(Oc3ccccc3)ccc2N=C1N` (centres unmarked) [Compound 562], at β-secretase (BACE) [1] (0.3 μM test compound), the inhibition at 0.3 µM was 106%. Besides, the inhibition at 1 µM at β-secretase (BACE) [1] (1 μM test compound) was 118%. Also, the inhibition at 3 µM on β-secretase (BACE) [1] (3 μM test compound) stood at 128%. The same molecule had a Ki on β-secretase (BACE) [2] of 0.026 µM.
Turning to `NC1=Nc2ccc(Oc3cccc(NS(=O)(=O)c4ccccc4)c3)cc2CN1CCCCC(=O)N(C1CCCCC1)C1CCCCC1` [Compound 113], half-maximal inhibition against β-secretase (BACE) [3] (IC50) was put at 0.99 µM. In other words, the sub-micromolar range.
Still for that read-out and setting: next, `CCCN1Cc2cc(Oc3cccc(CNCc4c(C)cc(C)cc4C)c3)ccc2N=C1N` [Compound 344]: 0.058 µM.
As to `CN(C(=O)CC[C@@H](C1CCCCC1)N1Cc2cc(Oc3ccccc3)ccc2N=C1N)C1CCC2(CC1)OCCO2` [Compound 710], the inhibition at 0.3 µM at β-secretase (BACE) [1] (0.3 μM compound, FS1 substrate) is < 30%. Moreover, on β-secretase (BACE) [1] (1 μM compound, FS1 substrate), the inhibition at 1 µM is 68%. Besides, the inhibition at 3 µM on β-secretase (BACE) [1] (3 μM compound, FS1 substrate) is 126%. The inhibition constant Ki on β-secretase (BACE) [2] is 0.3 µM.
In turn, `CCCN1Cc2cc(Oc3cccc(CNCc4cccc(O)c4)c3)ccc2N=C1N` [Compound 305] gave a concentration for half-maximal inhibition (IC50) against β-secretase (BACE) [3] of 1.4 µM.
Consider `CN(C(=O)CCC(C1CCCCC1)N1Cc2cc(Oc3ccccc3)ccc2N=C1N)C(COCc1ccccc1)C(=O)O` (centres unmarked) [Compound 781], for which the inhibition at 0.3 µM on β-secretase (BACE) [1] (0.3 μM compound, FS1 substrate) worked out at 106%. Moreover, the inhibition at 1 µM at β-secretase (BACE) [1] (1 μM compound, FS1 substrate) came out at 109%. Further, the inhibition at 3 µM at β-secretase (BACE) [1] (3 μM compound, FS1 substrate) was 121%. On β-secretase (BACE) [2], the Ki stood at 0.038 µM.
Consider `CN(C(=O)CC[C@@H](C1CCCCC1)N1Cc2cc(Oc3ccccc3)ccc2N=C1N)C1CCC(=O)CC1` [Compound 711], for which the inhibition at 0.3 µM on β-secretase (BACE) [1] (0.3 μM compound, FS1 substrate) is < 30%. Moreover, the inhibition at 1 µM at β-secretase (BACE) [1] (1 μM compound, FS1 substrate) came to 43%. The inhibition at 3 µM on β-secretase (BACE) [1] (3 μM compound, FS1 substrate) was found to be 113%. At β-secretase (BACE) [2], this molecule returned a Ki of 0.45 µM.
On β-secretase (BACE) [3], `CCCN1Cc2cc(Oc3cccc(CNCc4ccccc4OC)c3)ccc2N=C1N` [Compound 335] returned a concentration for half-maximal inhibition (IC50) of 0.24 µM.
